# Source: US20240366564A1, “Use of Chlorophyll Derivatives for the Treatment of SARS-CoV-2 Infection” (priority 2021, published 2024)
# Entries after “also recorded” stand apart in the source; their conditions may differ. Read-outs that look alike come from different tables or passages of the source.
# Assays:
# [1] = biological target: T1, binding of SARS-CoV-2 Spike protein (S1 subunit) to ACE2 (UniProt P0DTC2+Q9BYF1); experiment: biochemical
# T1 construct: a fusion protein of the SARS-CoV-2 spike protein S1 subunit and the horseradish peroxidase (HRP) enzyme
# [2] = test system: SARS-CoV-2-infected permissive cell lines (Vero E6, Huh-7.5, A549 ACE2+, HT1080 ACE2+)
# [3] = test system: SARS-CoV-2 USA-WA1/2020 virus; type: cell-based
# T1 sequence (Q9BYF1 18-740, one chain of several): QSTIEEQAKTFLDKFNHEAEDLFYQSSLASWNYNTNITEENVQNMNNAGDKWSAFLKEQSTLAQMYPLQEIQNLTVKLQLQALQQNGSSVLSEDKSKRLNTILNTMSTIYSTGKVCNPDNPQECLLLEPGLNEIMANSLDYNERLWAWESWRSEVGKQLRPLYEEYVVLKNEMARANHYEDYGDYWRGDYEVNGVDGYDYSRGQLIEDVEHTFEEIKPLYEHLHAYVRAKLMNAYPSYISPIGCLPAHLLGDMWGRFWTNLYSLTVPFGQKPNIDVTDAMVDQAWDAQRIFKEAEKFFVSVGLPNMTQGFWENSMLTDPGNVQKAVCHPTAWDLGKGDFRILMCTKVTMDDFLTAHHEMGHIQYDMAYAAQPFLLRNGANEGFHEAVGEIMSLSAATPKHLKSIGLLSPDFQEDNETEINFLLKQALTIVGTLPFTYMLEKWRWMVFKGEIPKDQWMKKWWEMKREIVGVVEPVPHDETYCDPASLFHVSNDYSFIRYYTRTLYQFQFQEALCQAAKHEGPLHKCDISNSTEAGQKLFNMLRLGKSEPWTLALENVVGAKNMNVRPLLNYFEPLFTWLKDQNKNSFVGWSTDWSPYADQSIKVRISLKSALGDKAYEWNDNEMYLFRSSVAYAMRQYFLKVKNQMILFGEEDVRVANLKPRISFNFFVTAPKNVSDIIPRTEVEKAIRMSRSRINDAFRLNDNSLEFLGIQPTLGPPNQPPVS
Compound,Active (Y or N) [1],also measured
N-Methyl Protoporphyrin,N,–
Verteporfin,Y,IC50 ([1]; read-out: IC50): 225 nM
C[n+]1ccc(-c2c3nc(c(-c4cc[n+](C)cc4)c4ccc([nH]4)c(-c4cc[n+](C)cc4)c4ccc([nH]4)c(-c4cc[n+](C)cc4)c4nc2C=C4)C=C3)cc1 [TmPyP4],N,–
C=Cc1c(C)c2cc3nc(c(CC(=O)O)c4[nH]c(cc5nc(cc1[nH]2)C(C)=C5CC)c(C)c4C(=O)O)[C@@H](CCC(=O)O)[C@@H]3C [Chlorin E6],Y (weak),IC50 ([1]; read-out: IC50): 5000 nM
MnTBAP,N,–
C1=Cc2cc3ccc(cc4nc(cc5ccc(cc1n2)[nH]5)C=C4)[nH]3 [Porphine],N,–
Coproporphyrin III,N,–
C=Cc1c(C)c2cc3nc(c4c5[nH]c(cc6nc(cc1[nH]2)C(C)=C6CC)c(C)c5C(=O)[C@@H]4C(=O)OC)[C@@H](CCC(=O)O)[C@@H]3C [Pheophorbide A],Y,toxicity to the infected cells relative to antiviral doses [2]: antiviral activity was detected at doses lower than the dosing where pheophorbide A was toxic; antiviral activity under light exposure versus dark [3]: generally improved; antiviral activity without photoactivation [3]: exhibit antiviral activity in the dark; antiviral effect with pre-treatment versus treatment after infection [3]: more pronounced; inhibition of SARS-CoV-2 infection in culture [3]: significantly inhibits; IC50 [1]: 500 nM; inhibition of the binding of SARS-CoV-2 Spike protein to ACE2 (in words) [1]: dose dependent decrease in binding; also recorded: dose-dependent inhibition
C=Cc1c(C)c2cc3nc(c4c5[n-]c(cc6nc(cc1[n-]2)C(C=O)=C6CC)c(C)c5C(=O)[C@@H]4C(=O)OC)[C@@H](CCC(=O)OC/C=C(\C)CCC[C@H](C)CCC[C@H](C)CCCC(C)C)[C@@H]3C.[Mg+2] [Chlorophyll B],N,–
C=Cc1c(C)c2cc3nc(c4c5[n-]c(cc6nc(cc1[n-]2)C(C)=C6CC)c(C)c5C(=O)[C@@H]4C(=O)OC)[C@@H](CCC(=O)OC/C=C(\C)CCC[C@H](C)CCC[C@H](C)CCCC(C)C)[C@@H]3C.[Mg+2] [Chlorophyll A],N,–
Vitamin B12,N,inhibition of the binding of SARS-CoV-2 Spike protein to ACE2 (in words) [1]: non-active
"C1=Cc2nc1cc1ccc([nH]1)c(-c1ccccc1)c1nc(cc3ccc([nH]3)c2-c2ccccc2)C=C1 [5,15-diphenyl-21H,23H-porphine]",N,–
C=CC1=C(C)c2cc3[nH]c(cc4nc(cc5[nH]c(cc1n2)c(C)c5CCC(=O)O)C(CCC(=O)O)=C4C)c(C)c3C=C [Protoporphyrin IX],–,IC50 [1]: 1200 nM
N-Methyl Mesoporphyrin,N,–
